Assay results published in PMC11512107, “Structural and biochemical analysis of ligand binding in yeast Niemann–Pick type C1–related protein” (Life Science Alliance, 2024).

What was measured:
NTD of NCR1 = molecular target: T1, NTD of NCR1 (Saccharomyces cerevisiae, UniProt Q12200); experiment: In vitro liposome crosslinking assay of pac-lipids with the NTD; type: binding; settings: liposomes with 1.5 mol% pac-lipid (1 μM), 1.5 μM NTD, average ratio
T1 construct: residues 1–249, UniProt: Q12200; thrombin cleavage site (C); deca-histidine tag (C, cleaved yes); made in house; host or cells: Saccharomyces cerevisiae strain DSY-5
T1 sequence (Q12200 20-249): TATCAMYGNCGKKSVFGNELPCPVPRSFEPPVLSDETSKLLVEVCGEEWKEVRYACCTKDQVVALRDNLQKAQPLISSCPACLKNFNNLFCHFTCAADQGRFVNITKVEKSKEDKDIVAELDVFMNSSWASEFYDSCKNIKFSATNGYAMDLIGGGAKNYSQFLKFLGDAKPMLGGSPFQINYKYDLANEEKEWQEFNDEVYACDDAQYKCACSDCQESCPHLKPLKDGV
Text: In a parallel approach, the substrate scope of the NTD and NPC2 was probed with photo-activatable and clickable (pac) lipids. Pac-lipids contain small chemical modifications for click chemistry reactions, with fluorophores such as AF647 (a structural analog of Alexa Fluor 647), and for UV-activated photo-crosslinking, respectively ([45]). In contrast to NBD-tagged lipids delivered in solution, pac-lipids such as pac-cholesterol (pacChol), pac-phosphatidylcholine (pacPC), pac-sphingosine (pacSph), and pac-ceramide (pacCer) were reconstituted in liposomal membranes (Fig 5A and B). As expected, the delipidated NTD crosslinks with pacChol (average +UV/−UV ratio = 2.11). Crosslinking of the NTD with pacSph (+UV/−UV = 1.73) and, to a lesser extent, with pacCer and pacPC (+UV/−UV = 1.40 and 1.12), respectively, was also detected (Fig 5C and D).
Lipids from stock vials were dissolved in chloroform and mixed at the desired molar ratio. […]
Extruded liposomes were diluted in PBS until a final lipid concentration of 60 μM, including 1 μM pac-lipid. […] Data were evaluated by subtracting background fluorescence, followed by comparing the AF647 signal between crosslinked and non-crosslinked samples, normalized to protein loading based on Coomassie staining. […] Statistics were calculated with the Mann–Whitney U test.

NPC2 = molecular target: T2, NPC2 (Saccharomyces cerevisiae, UniProt Q12408); experiment: In vitro liposome crosslinking assay of pac-lipids with NPC2; type: binding; settings: liposomes with 1.5 mol% pac-lipid (1 μM), 1.5 μM NPC2
T2 construct: residues 1–173, UniProt: Q12408; thrombin cleavage site (C); deca-histidine tag (C, cleaved yes); made in house; host or cells: Saccharomyces cerevisiae strain DSY-5
T2 sequence (Q12408 22-173): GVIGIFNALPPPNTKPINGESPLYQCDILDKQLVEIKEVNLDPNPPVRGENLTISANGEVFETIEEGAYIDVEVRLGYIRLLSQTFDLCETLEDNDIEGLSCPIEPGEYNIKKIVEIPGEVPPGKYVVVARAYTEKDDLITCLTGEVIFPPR
Experimental: To compare with the interaction profile of the NTD, crosslinking assays were also performed with purified, delipidated NPC2 (Fig S4A and B). […] NPC2 crosslinks well with all tested pac-lipids but, as for the NTD, most strongly with pacChol (+UV/−UV ratio = 1.91). Robust and consistent crosslinking with pacSph (+UV/−UV ratio = 1.64), pacCer (+UV/−UV = 1.67), and pacPC (+UV/−UV = 1.63) were observed. The crosslinking efficiency for cholesterol and sphingosine analogs was higher for the NTD, whereas crosslinking with ceramide and PC analogs seemed stronger with NPC2.
Lipids from stock vials were dissolved in chloroform and mixed at the desired molar ratio. For in vitro crosslinking, most liposomes consisted of 88.5 mol% DOPC as carrier lipid, 10 mol% DOPS, and 1.5 mol% respective pac-lipid. The pac-lipids were incorporated into liposomes at low concentrations (1.5 mol%) to ensure homogenous distribution and avoid micelle formation. The solvent was evaporated in a rotary evaporator (Hei-VAP Core, Heidolph) for 30 min at 42°C at 150 rpm to create a thin lipid film. Lipid films were hydrated with filtered and degassed PBS (137 mM NaCl, 2.7 mM KCl, 10 mM Na2HPO4, 1.8 mM KH2PO4, pH 7.4). Solutions of hydrated lipids (with a total lipid concentration of 2 mM) were subjected to five freeze–thaw cycles in liquid nitrogen and warm water (42°C) to facilitate breakup of large structures and support formation of smaller multilamellar vesicles. Lipid solutions were stored at −20°C. Before use, liposomes were extruded by passing 20x through a 100-nm pore size polycarbonate filter (Nuclepore; Whatman) using a hand extruder (Avanti Polar Lipids). Extruded liposomes were stored at 4°C, protected from light, and used within 1–2 d.
Extruded liposomes were diluted in PBS until a final lipid concentration of 60 μM, including 1 μM pac-lipid. Purified proteins were added until a final concentration of 1.5 μM in a reaction volume of 100 μl. Protein–liposome mixtures were incubated in 0.5-ml Eppendorf tubes for 30 min at 37°C at 400 rpm (Comfort thermomixer, Eppendorf), then crosslinked (or not) by exposure to 365-nm UV light for 15 min at 4°C using a 100-W mercury lamp (Blak-Ray B-100AP). After crosslinking, the click reaction was performed by adding 0.7 μl of freshly prepared click mix into the sample tubes. The final concentrations of click reagents in sample tubes were 80 μM CuSO4 (Merck), 3 μM TBTA (Merck), 3 μM AF647-picolyl azide (Jena Bioscience), and 80 μM ascorbic acid (Merck). Fresh stock of ascorbic acid solution in water was prepared every time and added to the click mix immediately before starting the click reaction. Click reactions were allowed to proceed for 2 h at 37°C at 400 rpm with the thermomixer. Then, samples were concentrated in a vacuum evaporator for 30 min set to 30°C and supplemented with 4x Lämmli buffer (250 mM Tris, pH 6.8, 9.2% SDS, 40% glycerol, 0.2% bromophenol blue, 100 mM DTT). Samples were boiled for 5 min at 95°C, and clicked protein–lipid complexes were resolved by SDS–PAGE. After extensive destaining in a destain solution (65% water, 25% isopropanol, and 10% acetic acid), the AF647 (a structural analog of Alexa Fluor 647) and Coomassie images were acquired using the LI-COR Odyssey imaging system. Data were evaluated by subtracting background fluorescence, followed by comparing the AF647 signal between crosslinked and non-crosslinked samples, normalized to protein loading based on Coomassie staining. The resulting values are described as +UV/−UV ratios. Statistics were calculated with the Mann–Whitney U test.

NPC2 to the NTD = molecular target: T3, NPC2 to the NTD (Saccharomyces cerevisiae, UniProt Q12200); experiment: In vitro pac-lipid transfer assay from NPC2 to the NTD; type: biochemical; settings: His-tagged NPC2 preloaded with soluble pac-lipid; GFP baseline, STARD3 negative control
T3 construct: residues 1–249, UniProt: Q12200; residues 1–173, UniProt: Q12408; deca-histidine tag (C, cleaved yes); made in house; host or cells: Saccharomyces cerevisiae strain DSY-5
T3 sequence (Q12200 20-249): as the sequence (Q12200 20-249) above
Text: The consistent interaction of sphingosine with both the NTD and NPC2 observed in this study inspired us to examine whether the transfer of pacSph between the two proteins could be reconstituted in vitro. To this end, a protein-to-protein sphingosine transfer assay using solubilized, free pacSph was designed (Fig 6A). […] As a control for specificity of transfer, the lipid binding domain of a mammalian STARD3 (His-STARD3-StART) was used because this protein was previously shown to interact with sphingosine in related work ([51] Preprint), but it is not located inside lysosomes and, therefore, is not expected to interact with the NTD. His-tagged NPC2, His-sfGFP, or His-STARD3-StART were immobilized on NiNTA beads, preloaded with pacSph, and incubated with the NTD. After removal of the beads, the NTD was subjected to UV crosslinking and clicked with a fluorophore, and the resulting lipid–protein complexes were visualized by SDS–PAGE.
Purified His-tagged proteins (5 μM of sfGFP, STARD3, or NPC2) were incubated with 10 μM pacSph in PBS for 60 min at 25°C at 500 rpm (Comfort thermomixer, Eppendorf). Next, the His-tagged proteins were captured on NiNTA beads and washed 5x with PBS to remove unbound pacSph. […] For data analysis, the background was subtracted and the +UV/−UV ratios were quantified for each sample as described previously. […] Statistics were calculated with the Mann–Whitney U test.

+UV/−UV ratio (crosslinking with NTD) (NTD of NCR1): 1.73
+UV/−UV ratio (crosslinking with NPC2) (NPC2): 1.64
transfer of pac-lipid from NPC2 to the NTD (crosslinking with NTD) (NPC2 to the NTD): increased crosslinking
Compound: C#CCCCC1(CCCCCCCC/C=C/[C@H](O)[C@H](N)CO)N=N1 [pacSph]
